For 7 compounds, IC50 results are on record in BindingDB's records for doi:10.3109/14756360902932784 (Ewha Womans University, 2010).

In experiment [1] the target is T1, 5-hydroxytryptamine receptor 1A (Homo sapiens, UniProt P08908).
T1 sequence (P08908 whole entry): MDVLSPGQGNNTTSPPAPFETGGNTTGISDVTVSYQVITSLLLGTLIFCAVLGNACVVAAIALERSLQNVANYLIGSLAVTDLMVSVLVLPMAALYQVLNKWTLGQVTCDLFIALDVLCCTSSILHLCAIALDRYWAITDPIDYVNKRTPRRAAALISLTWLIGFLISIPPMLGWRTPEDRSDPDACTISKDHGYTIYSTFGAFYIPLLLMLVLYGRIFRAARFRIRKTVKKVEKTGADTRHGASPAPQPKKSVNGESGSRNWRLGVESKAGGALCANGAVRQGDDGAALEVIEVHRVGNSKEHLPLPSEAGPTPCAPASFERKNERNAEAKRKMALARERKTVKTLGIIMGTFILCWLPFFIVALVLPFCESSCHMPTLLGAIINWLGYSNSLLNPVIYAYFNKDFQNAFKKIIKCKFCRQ
The experiment in a line: [3H]8-OH-DPAT Binding Assay. Conditions: pH 7.4; 27 °C. As to the method:
For the binding assay, aliquots of receptor membranes, 0.25 nM [3H]8-OH-DPAT (8-hydroxy-2-(di-N-propylamino)tetralin, 154.3 Ci/mM; New England Nuclear, Boston, MA) and appropriate concentrations of test compounds were added to 0.25 mL of 50 mM Tris-HCl (pH 7.4) buffer containing 10 mM MgSO4, 0.5 mM ethylenediaminetetraacetic acid (EDTA), and 0.1% ascorbic acid. Incubations were carried out for 60 min at 27 °C, and these were terminated by rapid filtration using a MicroBeta FilterMate-96 harvester (PerkinElmer) through a Filtermat A glass fiber filter presoaked in 0.3% polyethylenimine (PEI). The filter was washed with ice-cold 50 mM Tris-HCl buffer solution (pH 7.4), and was then covered with MeltiLex, sealed in a sample bag, and dried in an oven.

Experiment [2] concerns the target 5-hydroxytryptamine receptor 2A (Homo sapiens, UniProt P28223). The experiment in a line: [3H]Ketanserin Binding Assay. Conditions: pH 7.4. As to the method:
For serotonin 5-HT2A binding, an aliquot of frozen membrane from a CHO-K1 cell line expressing the human recombinant 5-HT2A receptor (PerkinElmer) and [3H]ketanserin (1 nM; PerkinElmer) were used in the presence of mianserin (20 μM) as nonspecific. The reaction mixture was incubated for 60 min at 27°C using 50 mM Tris-HCl (pH 7.4) buffer containin 4 mM CaCl2 and 0.1% ascorbic acid, and harvested through a Filtermat A glass fiber filter presoaked in 0.5% PEI.

Experiment [3] concerns the target T2, 5-hydroxytryptamine receptor 2C (Homo sapiens, UniProt P28335).
T2 sequence (P28335 whole entry): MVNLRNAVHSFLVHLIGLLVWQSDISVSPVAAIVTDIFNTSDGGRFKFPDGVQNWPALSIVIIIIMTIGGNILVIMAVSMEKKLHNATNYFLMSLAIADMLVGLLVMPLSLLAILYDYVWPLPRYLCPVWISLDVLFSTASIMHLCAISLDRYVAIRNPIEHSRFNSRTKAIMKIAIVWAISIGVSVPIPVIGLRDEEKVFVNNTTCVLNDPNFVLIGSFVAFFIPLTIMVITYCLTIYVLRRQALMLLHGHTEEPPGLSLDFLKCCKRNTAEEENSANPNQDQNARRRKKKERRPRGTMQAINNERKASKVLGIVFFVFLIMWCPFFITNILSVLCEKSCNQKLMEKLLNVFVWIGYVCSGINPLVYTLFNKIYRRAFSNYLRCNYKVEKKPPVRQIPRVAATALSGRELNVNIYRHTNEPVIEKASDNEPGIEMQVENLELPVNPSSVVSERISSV
The experiment is described as follows: [3H]Mesulergine Binding Assay. Conditions: pH 7.4. As for the experimental part:
(§1) Frozen membranes from a stable CHO-K1 cell line expressing the human recombinant 5-HT2C receptor (PerkinElmer) were used. For the binding assay, [3H]mesulergine (1 nM; Amersham Biosciences, Buckinghamshire, UK), receptor membrane, and test compounds were added into 50 mM Tris-HCl (pH 7.4) buffer containing 0.1% ascorbic acid and 4 mM CaCl2. Nonspecific binding was determined using 100 μM mianserin. The incubations were performed for 60 min at 27°C, and these were terminated by rapid filtration through a Filtermat A glass fiber filter presoaked in 0.5% PEI.

Experiment [4] concerns the target 5-hydroxytryptamine receptor 6 (Homo sapiens, UniProt P50406). The experiment in a line: [3H] LSD Binding Assay. Conditions: pH 7.4; 27 °C. As for the experimental part: (§2) For receptor binding assays, human 5-HT6 and 5-HT7 serotonin receptors expressed in CHO-K1 cells (PerkinElmer) were used. For 5-HT6 receptor binding, frozen membrane, 1 nM [3H]LSD (lysergic acid diethylamide; PerkinElmer), and appropriate concentrations of test compounds were added to 0.25 mL of 50 mM Tris-HCl (pH 7.4) buffer containing 0.1% ascorbic acid and 4 mM CaCl2. Nonspecific binding was determined using 10 μM methiothepin. The incubations were performed for 60 min at 27 °C, and these were terminated by rapid filtration through a Filtermat A glassfiber filter presoaked in 0.5% PEI. For the 5-HT7 receptor binding assay, cell membrane, 3 nM [3H]LSD, and appropriate concentrations of test compounds were added to 0.25 mL of 50 mM Tris-HCl (pH 7.4) buffer containing 10 mM MgSO4 and 0.5 mM EDTA. The mixture was incubated for 120 min at 27 °C, and the reaction was terminated by rapid filtration through a Filtermat A glass fiber filter presoaked in 0.3% PEI. Nonspecific binding was determined using 10 μM methiothepin.

For experiment [5], the target named is 5-hydroxytryptamine receptor 7 (Homo sapiens, UniProt P34969). The experiment is described as follows: [3H] LSD Binding Assay. The settings on record: pH 7.4; 27 °C. As for the experimental part: as §2
For experiment [6], the target named is T3, 5-hydroxytryptamine receptor 2C (Homo sapiens, UniProt P28335).
T3 sequence (P28335 whole entry): T2 sequence (P28335 whole entry) with S23C
The experiment is described as follows: [3H]Mesulergine Binding Assay. The settings on record: pH 7.4. As to the method: as §1
This is another data set of the same source.

Substitutions are numbered along the chain they refer to.

Chain of 5-hydroxytryptamine receptor 7 (P34969 whole entry): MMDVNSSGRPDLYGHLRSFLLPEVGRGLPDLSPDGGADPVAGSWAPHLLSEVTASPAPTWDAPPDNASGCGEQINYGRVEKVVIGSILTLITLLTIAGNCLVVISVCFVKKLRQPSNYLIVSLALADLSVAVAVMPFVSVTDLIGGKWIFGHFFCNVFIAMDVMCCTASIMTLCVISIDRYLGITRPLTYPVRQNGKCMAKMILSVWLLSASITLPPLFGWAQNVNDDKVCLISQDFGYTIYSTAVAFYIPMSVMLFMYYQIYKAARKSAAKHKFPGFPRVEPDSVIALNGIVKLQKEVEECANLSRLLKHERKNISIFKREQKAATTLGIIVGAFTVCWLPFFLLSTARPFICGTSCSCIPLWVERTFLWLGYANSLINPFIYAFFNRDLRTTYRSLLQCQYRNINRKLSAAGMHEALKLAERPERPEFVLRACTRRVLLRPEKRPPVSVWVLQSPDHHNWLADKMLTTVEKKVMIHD
Chain of 5-hydroxytryptamine receptor 6 (P50406 whole entry): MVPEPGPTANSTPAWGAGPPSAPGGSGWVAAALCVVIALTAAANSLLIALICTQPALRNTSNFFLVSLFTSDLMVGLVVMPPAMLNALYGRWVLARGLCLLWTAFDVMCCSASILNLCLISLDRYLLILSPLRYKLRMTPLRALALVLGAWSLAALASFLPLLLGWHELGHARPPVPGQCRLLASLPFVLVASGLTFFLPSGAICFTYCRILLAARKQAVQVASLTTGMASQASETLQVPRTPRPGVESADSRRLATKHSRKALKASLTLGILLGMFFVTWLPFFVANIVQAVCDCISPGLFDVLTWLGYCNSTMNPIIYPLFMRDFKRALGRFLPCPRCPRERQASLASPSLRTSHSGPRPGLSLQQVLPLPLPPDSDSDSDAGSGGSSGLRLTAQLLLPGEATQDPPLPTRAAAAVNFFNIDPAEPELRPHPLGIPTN
Chain of 5-hydroxytryptamine receptor 2A (P28223 whole entry): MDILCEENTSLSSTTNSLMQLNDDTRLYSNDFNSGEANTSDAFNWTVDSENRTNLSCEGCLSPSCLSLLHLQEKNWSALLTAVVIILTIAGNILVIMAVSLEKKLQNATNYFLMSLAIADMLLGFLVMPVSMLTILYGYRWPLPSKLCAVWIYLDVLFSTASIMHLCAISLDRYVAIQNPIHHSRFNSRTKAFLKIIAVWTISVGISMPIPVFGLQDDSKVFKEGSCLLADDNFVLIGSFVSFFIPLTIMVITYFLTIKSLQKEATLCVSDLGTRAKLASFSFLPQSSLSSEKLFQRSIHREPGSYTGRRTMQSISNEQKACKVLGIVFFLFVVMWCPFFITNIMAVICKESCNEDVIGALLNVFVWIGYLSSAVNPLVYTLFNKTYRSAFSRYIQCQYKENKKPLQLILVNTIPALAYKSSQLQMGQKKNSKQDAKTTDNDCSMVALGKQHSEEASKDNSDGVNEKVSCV

A word on the IC50: it is the concentration at which inhibition is half-maximal. Lower therefore signals greater potency. Turning to `CCCCCCCCNC(=O)/C=C/c1cc(OC)c(OC)c(OC)c1` [(E)-N-Octyl-3-(3,4,5-trimethoxyphenyl) acrylamide (1e)], the IC50 in experiment [1] is 1.2 µM; in experiment [2] it was > 10 µM; in experiment [3] it was 8.8 µM; in experiment [4], > 10 µM; in experiment [5], > 10 µM.
With `C=CCNC(=O)/C=C/c1cc(OC)c(OC)c(OC)c1` [(E)-N-Allyl-3-(3,4,5-trimethoxyphenyl) acrylamide (1b)], the half-inhibitory concentration (IC50) is 5.9 µM in experiment [1]; > 10 µM in experiment [2]; > 10 µM in experiment [6]; > 10 µM in experiment [4]; > 10 µM in experiment [5].
In the case of `CCCCCCCCCCNC(=O)/C=C/c1cc(OC)c(OC)c(OC)c1` [(E)-N-Decyl-3-(3,4,5-trimethoxyphenyl) acrylamide (1f)], the IC50 in experiment [1] stood at 2.1 µM; in experiment [2], 6.8 µM; in experiment [3] it was 4.5 µM; in experiment [4] it was 5.6 µM; in experiment [5] it was 6.7 µM.
The matching figures for `COc1cc(/C=C/C(=O)O)cc(OC)c1OC` [3,4,5-Trimethoxycinnamic acid (TMCA)]: 7.6 µM, > 10 µM, 2.5 µM, > 10 µM and > 10 µM.
For `CCCCCCNC(=O)/C=C/c1cc(OC)c(OC)c(OC)c1` [(E)-N-Hexyl-3-(3,4,5-trimethoxyphenyl) acrylamide (1d)], the IC50 in experiment [1] was 3.8 µM; in experiment [2] it was > 10 µM; in experiment [6] it was > 10 µM; in experiment [4] it was > 10 µM; in experiment [5] it was > 10 µM.
As for `CNC(=O)/C=C/c1cc(OC)c(OC)c(OC)c1` [(E)-N-Methyl-3-(3,4,5-trimethoxyphenyl) acrylamide (1a)], the IC50 in experiment [1] was 5.6 µM; in experiment [2], > 10 µM; in experiment [6], > 10 µM; in experiment [4], > 10 µM; in experiment [5], > 10 µM.
Turning to `CCCCNC(=O)/C=C/c1cc(OC)c(OC)c(OC)c1` [(E)-N-Butyl-3-(3,4,5-trimethoxyphenyl) acrylamide (1c)], the half-maximal inhibitory concentration (IC50) is 4.9 µM in experiment [1]; > 10 µM in experiment [2]; > 10 µM in experiment [6]; > 10 µM in experiment [4]; > 10 µM in experiment [5].
